Key:
Experiment in all cases: In vitro antifungal activity, microbroth dilution MIC
Assay type in all cases: cell-based
[1] = system: Trichophyton mentagrophytes B. 32663; conditions: RPMI-1640, 35° C., no growth observed
Protocol: (§1) In vitro antifungal activities of the inventive antifungal compounds were evaluated using the test strains shown in Table VIII by the following microbroth dilution method which is a modified version of the procedure recommended by National Committee for Clinical Laboratory Standards(see National Committee for Clinical Laboratory Standards, 1992, Reference methods for broth dilution antifungal susceptibility testing of yeasts, Proposed standard M27-P, National Committee for clinical laboratory standards, Villanova, Pa; and National Committee for Clinical Laboratory Standards, 1995, Reference methods for broth dilution antifungal susceptibility testing of yeasts. Tentative standard M27-T, National Committee for clinical laboratory standards, Villanova, Pa).
(§2) Sabourad Dextrose Agar(Difco) was used as a culture medium, and RPMI-1640 broth(Sigma. Co. w/L-glutamine, wo/NaHCO3)(0.165 M MOPS, pH 7.0), as a dilution medium.
(§3) Each of the test strains were subcultured in Sabourad Dextrose Agar medium twice and a stain sample was taken from prominent colonies and suspended in sterile physiological saline solution in a cap tube. The turbidity of the suspension was adjusted to that of the Mcfarland 0.5 standard sample(approximately 10^6 CFU/ml). Then the suspension was diluted 500-fold with sterile RPMI-1640 liquid medium to 2×10^3 CFU/ml.
(§4) Each of the test compounds(the compounds obtained in Examples 1 to 150 and comparative compounds, i.e., fluconazole(FCZ) and itraconazole (ICZ)), was dissolved in DMSO to give a stock solution having a concentration of 4000 μg/ml and the stock solution was successively diluted to obtain test solutions having test compound concentrations of 200, 100, 50, 25, 12.5, 6.25, 3.13, 1.56, 0.78, 0.39, 0.20 and 0.10 μg/ml, respectively.
(§5) 0.1 ml portion of the test solutions were added to the wells of a sterile 96 well plate. Then, 0.1 ml portion of each of the test strain solutions were added successively to the wells and the plate was incubated at 35° C. for 4 to 48 hours.
(§6) Minimal inhibitory concentration(MIC) of each compound was defined as the concentration of the test compound where no growth of the strain could be observed.

[2] = system: Trichophyton mentagrophytes A. 9129; conditions: RPMI-1640, 35° C., no growth observed
Protocol: as §1, §2, §3, §4, §5, §6

[3] = system: Candida albicans IFO. 1385; conditions: RPMI-1640, 35° C., 4 to 48 hours, no growth observed
Protocol: as §1, §2, §3, §4, §5, §6

[4] = system: Cryptococcus neoformans A. 34144; conditions: RPMI-1640, 35° C., no growth observed
Protocol: as §1, §2, §3, §4, §5, §6

[5] = system: Candida pseudotropicalis K. 11658; conditions: RPMI-1640, 35° C., 4 to 48 hours, no growth observed
Protocol: as §1, §2, §3, §4, §5, §6

[6] = system: Cryptococcus neoformans B. 42419; conditions: RPMI-1640, 35° C., 4 to 48 hours, no growth observed
Protocol: as §1, §2, §3, §4, §5, §6

[7] = system: Aspergillus niger A. 16404; conditions: RPMI-1640, 35° C., no growth observed
Protocol: as §1, §2, §3, §4, §5, §6

Candida albicans C1-2 = conditions: RPMI-1640, 35° C., 4 to 48 hours, no growth observed
Protocol: as §1, §2, §3, §4, §5, §6

[8] = system: Candida tropicalis A. 13803; conditions: RPMI-1640, 35° C., 4 to 48 hours, no growth observed
Protocol: as §1, §2, §3, §4, §5, §6

Candida krusei K. 11655 = conditions: RPMI-1640, 35° C., 4 to 48 hours, no growth observed
Protocol: as §1, §2, §3, §4, §5, §6

[9] = system: Candida albicans A. 10231; conditions: RPMI-1640, 35° C., 4 to 48 hours, no growth observed
Protocol: as §1, §2, §3, §4, §5, §6

[10] = system: Torulopsis glabrata B. 16205; conditions: RPMI-1640, 35° C., 4 to 48 hours, no growth observed
Protocol: as §1, §2, §3, §4, §5, §6

[11] = system: Cryptococcus neoformans IFM. 40092; conditions: RPMI-1640, 35° C., no growth observed
Protocol: as §1, §2, §3, §4, §5, §6

[12] = system: Aspergillus furnigatus B. 19119; conditions: RPMI-1640, 35° C., no growth observed
Protocol: as §1, §2, §3, §4, §5, §6

[13] = system: Candida parapsitosis A. 7330; conditions: RPMI-1640, 35° C., 4 to 48 hours, no growth observed
Protocol: as §1, §2, §3, §4, §5, §6

Minimal inhibitory concentration(MIC), T. mentagrophytes B. 32663 ([1]; 4 to 48 hours)	Minimal inhibitory concentration(MIC), T. mentagrophytes A. 9129 ([2]; 4 to 48 hours) [µg/mL]	Minimal inhibitory concentration(MIC), C. albicans IFO. 1385 [3] [µg/mL]	Minimal inhibitory concentration(MIC), Cry. neoformans A. 34144 ([4]; 4 to 48 hours) [µg/mL]	Minimal inhibitory concentration(MIC), C. pseudotropicalis K. 11658 [5] [µg/mL]	Minimal inhibitory concentration(MIC), Cry. neoformans B. 42419 [6] [µg/mL]	Minimal inhibitory concentration(MIC), A. niger A. 16404 ([7]; 4 to 48 hours) [µg/mL]	Minimal inhibitory concentration(MIC), C. albicans C1-2 (Candida albicans C1-2) [µg/mL]	Minimal inhibitory concentration(MIC), C. tropicalis A. 13803 [8] [µg/mL]	Minimal inhibitory concentration(MIC), C. krusei K. 11655 (Candida krusei K. 11655) [µg/mL]	Minimal inhibitory concentration(MIC), C. albicans A. 10231 [9] [µg/mL]	Minimal inhibitory concentration(MIC), T. glabrata B. 16205 [10] [µg/mL]	Minimal inhibitory concentration(MIC), Cry. neoformans IFM. 40092 ([11]; 4 to 48 hours)	Minimal inhibitory concentration(MIC), A furnigatus B. 19119 ([12]; 4 to 48 hours) [µg/mL]	Minimal inhibitory concentration(MIC), C. parapsitosis A. 7330 [13] [µg/mL]	SMILES	also measured
0.39 µg/mL	6.25	0.78	0.78	1.56	0.78	100	>100	>100	1.56	>100	100	≦0.10 μg/ml	25.0	0.78	Cc1cccc(C(=C(F)N2CCN(c3ccc(OCC4COC(Cn5ccnc5)(c5ccc(F)cc5F)O4)cc3)CC2)C(F)(F)F)c1 (mixture of isomers) [Ex. 139]	–
–	–	0.78	–	0.39	0.78	–	>100	>100	0.39	>100	50.0	–	–	0.78	FC(=C(c1cccc(F)c1)C(F)(F)F)N1CCN(c2ccc(OCC3COC(Cn4ccnc4)(c4ccc(F)cc4F)O3)cc2)CC1 (mixture of isomers) [Ex. 147]	Minimal inhibitory concentration(MIC), T. mentagrophytes B. 32663 [1]: ≦0.10 μg/ml; Minimal inhibitory concentration(MIC), T. mentagrophytes A. 9129 [2]: 3.13 µg/mL; Minimal inhibitory concentration(MIC), Cry. neoformans A. 34144 [4]: 0.78 µg/mL; Minimal inhibitory concentration(MIC), A. niger A. 16404 [7]: 100 µg/mL; Minimal inhibitory concentration(MIC), Cry. neoformans IFM. 40092 [11]: ≦0.10 μg/ml; Minimal inhibitory concentration(MIC), A furnigatus B. 19119 [12]: 12.5 µg/mL
3.13 µg/mL	6.25	1.56	1.56	>100	1.56	>100	25.0	>100	>100	50.0	50.0	0.39 µg/mL	>100	>100	FC(=C(c1ccccc1)C(F)(F)F)N1CCN(c2ccc(OCC3COC(Cn4ccnc4)(c4ccc(Cl)cc4Cl)O3)cc2)CC1 (mixture of isomers) [Ex. 124]	–
≦0.10 μg/ml	3.13	0.78	0.78	1.56	0.78	100	>100	>100	1.56	>100	100	≦0.10 μg/ml	12.5	0.78	FC(=C(c1ccccc1)C(F)(F)F)N1CCN(c2ccc(OCC3COC(Cn4ccnc4)(c4ccc(F)cc4F)O3)cc2)CC1 (mixture of isomers) [Ex. 138]	–

From US6376497B1, “Antifungal azole derivatives having a fluorinated vinyl group and process for preparing same” (Korea Research Institute of Chemical Technology, priority 1999, dated 2002)
